Results: publication PMC6384738, “Structure-Function Studies of Polymyxin B Lipononapeptides” (Molecules, 2019)
In brackets after ≈: the same amount, converted by molar mass. *1 amine or outer side, *2 acyl side, *3 side chain or, on linkers, in order; H or OH if unused. Where a SMILES comes first, the peptide text is derived from it. Bridges are numbered along the chain shown (N, C = ends). [ ]: non-standard residue; d: D form. The star is where a group is joined. Biphenylcarbonyl(4'-Bu) = CCCCc1ccc(-c2ccc(C(=O)*)cc2)cc1; X1 = CCCCCC1CCC(C(=O)*)CC1; NH(2-ClPh) = Clc1ccccc1N*; dDab = NCC[C@@H](N)C(=O)O; Octanoyl = CCCCCCCC(=O)*; Orn = NCCC[C@H](N)C(=O)O; Dab = NCC[C@H](N)C(=O)O; CO = O=C([*:1])[*:2]

Columns and labels:
E. coli ATCC 25922 = assay: microbe, parasite or virus in culture
Experimental: (§1) All compounds synthesised in this study were assessed for their minimum inhibitory concentrations (MIC, mg/L) by broth microdilution assay against five antibiotic-sensitive and resistant ATCC reference strains covering the Gram-negative ESKAPE pathogens (Escherichia coli, Klebsiella pneumoniae, A. baumannii, and P. aeruginosa) (Table 1, Table 2 and Table 3). Staphylococcus aureus was also included as a representative Gram-positive bacterial strain. […] Polymyxin B 1, colistin 2, vancomycin and gentamicin were used as positive inhibitor comparator compounds. Compounds were counter-screened against human proximal tubular epithelial cells (HK-2), using LDH release as a general indicator of cellular toxicity.

P. aeruginosa ATTC 27853 = assay: microbe, parasite or virus in culture
Experimental: as §1

[1] = system: K. pneumoniae ATCC 700603; assay: microbe, parasite or virus in culture
Experimental: as §1

K. pneumoniae BAA 2146 = assay: microbe, parasite or virus in culture
Experimental: as §1

K. pneumoniae ATCC 13833 = assay: microbe, parasite or virus in culture
Experimental: as §1

A. baumannii ATCC 19606 = assay: microbe, parasite or virus in culture
Experimental: as §1

S. aureus ATCC 25923 = assay: microbe, parasite or virus in culture
Experimental: as §1

in vitro = conditions: human
Experimental: as §1
Cytotoxicity to human kidney proximal tubular epithelial cell line, HK-2 (ATCC CRL-2190, sourced from ATCC; Manassas, VA, USA) was determined using the LDH assay as previously described. In brief, HK-2 cells were seeded as 2000 cells/well in black-walled clear bottom 384-well tissue culture treated plates (Corning, catalogue No. 3712) in DMEM/F12 medium (Gibco® 10565-042) containing 10% of Fetal Bovine Serum (FBS, Gibco® 10099-141) and incubated for 24 h at 37 °C, 5% CO2. Compounds were then added into each well with a concentration series from 300 µM to 2.3 µM in 2-fold dilutions. Colistin and polymyxin B were used as controls and tested at a final concentration range of 1 mM to 7.8 µM. The cells were incubated with the compounds for 24 h at 37 °C, 5% CO2. After the incubation, 5 µL of culture medium was added to 45 µL of LDH assay buffer (Biovision, K313-500) and incubated for 30 min at room temperature. The absorbance (ABS) was then read at 450 nm using a Polar Star Omega plate reader. The data was analysed by Prism 6 software (GraphPad Software, La Jolla, CA, USA). Results were calculated using the following equation: cytotoxicity %= (ABSsamples − ABSuntreated/ABS1%Triton X-100 − ABSuntreated) × 100.

MIC K. pneumoniae ATCC 700603 ([1]; ATCC 700603, 18 h) [µg/mL] | MIC K. pneumoniae BAA 2146 (K. pneumoniae BAA 2146; BAA 2146, 18 h) [µg/mL] | MIC K. pneumoniae ATCC 13833 (K. pneumoniae ATCC 13833; ATCC 13833, 18 h) [µg/mL] | MIC S. aureus ATCC 25923 (S. aureus ATCC 25923; ATCC 25923, 18 h) [µg/mL] | SMILES | CC50 at 24 h (in vitro) [µM] | further results
 |  |  |  | CC(C)C[C@@H]1NC(=O)[C@@H](Cc2ccccc2)NC(=O)[C@H](CCN)NC(=O)[C@@H](NC(=O)[C@H](CCN)NC(=O)[C@@H](NC(=O)Nc2ccccc2Cl)[C@@H](C)O)CCNC(=O)[C@H]([C@@H](C)O)NC(=O)[C@H](CCN)NC(=O)[C@H](CCN)NC1=O [Compound 15] ({NH(2-ClPh)-CO}-T[Dab][Dab][Dab][dF]L[Dab][Dab]T; lactam 3-C) | 206 | MIC E. coli ATCC 25922 (E. coli ATCC 25922; broth microdilution, 18 h, 37 °C): 32 µg/mL (≈ 28.7 µM); MIC P. aeruginosa ATTC 27853 (P. aeruginosa ATTC 27853; broth microdilution, 18 h): 1 µg/mL (≈ 0.895 µM); MIC K. pneumoniae ATCC 700603 ([1]; ESBL strain, broth microdilution, 18 h): 32 µg/mL (≈ 28.7 µM); MIC K. pneumoniae BAA 2146 (K. pneumoniae BAA 2146; NDM-1 positive strain, broth microdilution, 18 h): 32 µg/mL (≈ 28.7 µM); MIC K. pneumoniae ATCC 13833 (K. pneumoniae ATCC 13833; broth microdilution, 18 h): >32 µg/mL; MIC A. baumannii ATCC 19606 (A. baumannii ATCC 19606; broth microdilution, 18 h): >32 µg/mL; MIC S. aureus ATCC 25923 (S. aureus ATCC 25923; Gram-positive strain, broth microdilution, 18 h): >32 µg/mL
 |  |  |  | CC(C)C[C@@H]1NC(=O)[C@@H](Cc2ccccc2)NC(=O)[C@H](CCN)NC(=O)[C@@H](NC(=O)[C@H](CCN)NC(=O)[C@@H](NC(=O)[C@H](CCN)NC(=O)Nc2ccccc2Cl)[C@@H](C)O)CCNC(=O)[C@H]([C@@H](C)O)NC(=O)[C@H](CCN)NC(=O)[C@H](CCN)NC1=O [Compound 16] ({NH(2-ClPh)-CO}-[Dab]T[Dab][Dab][Dab][dF]L[Dab][Dab]T; lactam 4-C) | > 300 | 
16 (≈ 14.5 µM) | 16 (≈ 14.5 µM) | 32 (≈ 29 µM) | >32 | CCCCCCCC(=O)N[C@H](C(=O)N[C@@H](CCN)C(=O)N[C@H]1CCCNC(=O)[C@H]([C@@H](C)O)NC(=O)[C@H](CCN)NC(=O)[C@H](CCN)NC(=O)[C@H](CC(C)C)NC(=O)[C@@H](Cc2ccccc2)NC(=O)[C@H](CCN)NC1=O)[C@@H](C)O [Compound 17] (Octanoyl-T[Dab][Orn][Dab][dF]L[Dab][Dab]T; lactam 3-C) | 88 | MIC E. coli ATCC 25922 (E. coli ATCC 25922; ATCC 25922, 18 h): 2 µg/mL (≈ 1.81 µM); MIC P. aeruginosa ATTC 27853 (P. aeruginosa ATTC 27853; ATTC 27853, 18 h): 2 µg/mL (≈ 1.81 µM); MIC A. baumannii ATCC 19606 (A. baumannii ATCC 19606; ATCC 19606, 18 h): >32 µg/mL
 |  |  |  | CCCCc1ccc(-c2ccc(C(=O)N[C@H](C(=O)N[C@H](CCN)C(=O)N[C@H]3CCNC(=O)[C@H]([C@@H](C)O)NC(=O)[C@H](CCN)NC(=O)[C@H](CCN)NC(=O)[C@H](CC(C)C)NC(=O)[C@@H](Cc4ccccc4)NC(=O)[C@H](CCN)NC3=O)[C@@H](C)O)cc2)cc1 [Compound 23] ({Biphenylcarbonyl(4'-Bu)}-T[dDab][Dab][Dab][dF]L[Dab][Dab]T; lactam 3-C) | 29 | 
8 (≈ 7 µM) | 4 (≈ 3.5 µM) | >32 |  | CCCCCC1CCC(C(=O)N[C@H](C(=O)N[C@H](CCN)C(=O)N[C@H]2CCNC(=O)[C@H]([C@@H](C)O)NC(=O)[C@H](CCN)NC(=O)[C@H](CCN)NC(=O)[C@H](CC(C)C)NC(=O)[C@@H](Cc3ccccc3)NC(=O)[C@H](CCN)NC2=O)[C@@H](C)O)CC1 (stereo partly drawn) [Compound 24] (X1-T[dDab][Dab][Dab][dF]L[Dab][Dab]T; lactam 3-C) | 60 | MIC E. coli ATCC 25922 (E. coli ATCC 25922; ATCC 25922, 18 h): 4 µg/mL (≈ 3.5 µM); MIC P. aeruginosa ATTC 27853 (P. aeruginosa ATTC 27853; ATTC 27853, 18 h): 4 µg/mL (≈ 3.5 µM); MIC A. baumannii ATCC 19606 (A. baumannii ATCC 19606; ATCC 19606, 18 h): 32 µg/mL (≈ 28 µM)
 |  | 0.5 (≈ 0.436 µM) | >32 | CCCCCCCC(=O)N[C@@H](CCN)C(=O)N[C@H](C(=O)NCC(=O)N[C@H]1CCNC(=O)[C@H]([C@@H](C)O)NC(=O)[C@H](CCN)NC(=O)[C@H](CCN)NC(=O)[C@H](CC(C)C)NC(=O)[C@@H](Cc2ccccc2)NC(=O)[C@H](CCN)NC1=O)[C@@H](C)O [Compound 50] (Octanoyl-[Dab]TG[Dab][Dab][dF]L[Dab][Dab]T; lactam 4-C) | > 300 | 

SMILES | MIC K. pneumoniae ATCC 700603 ([1]; ATCC 700603, 18 h) [µg/mL] | MIC K. pneumoniae BAA 2146 (K. pneumoniae BAA 2146; BAA 2146, 18 h) [µg/mL] | MIC K. pneumoniae ATCC 13833 (K. pneumoniae ATCC 13833; ATCC 13833, 18 h) [µg/mL] | MIC S. aureus ATCC 25923 (S. aureus ATCC 25923; ATCC 25923, 18 h) [µg/mL] | CC50 at 24 h (in vitro) [µM] | further results
CCCCCCCC(=O)N[C@@H](CCN)C(=O)N[C@H](C(=O)N[C@H](CO)C(=O)N[C@H]1CCNC(=O)[C@H]([C@@H](C)O)NC(=O)[C@H](CCN)NC(=O)[C@H](CCN)NC(=O)[C@H](CC(C)C)NC(=O)[C@@H](Cc2ccccc2)NC(=O)[C@H](CCN)NC1=O)[C@@H](C)O [Compound 34] (Octanoyl-[Dab]T[dS][Dab][Dab][dF]L[Dab][Dab]T; lactam 4-C) | 2 (≈ 1.7 µM) | 16 (≈ 13.6 µM) | 0.5 (≈ 0.425 µM) | >32 | 139 | 
